From ChEMBL document CHEMBL4308841, “Synthesis, in vitro antiproliferative activity, and kinase inhibitory effects of pyrazole-containing diarylureas and diarylamides” (Eur J Med Chem, 2018)

Tests used:
MOLT-4 = assay: Growth inhibition of human MOLT4 cells incubated for 48 hrs by sulforhodamine B assay; format: functional, cell-based; conditions: MOLT-4, 48 h
SR = assay: Growth inhibition of human SR cells incubated for 48 hrs by sulforhodamine B assay; format: functional, cell-based
NCI-H226 = assay: Growth inhibition of human NCI-H226 cells incubated for 48 hrs by sulforhodamine B assay; format: functional, cell-based; conditions: NCI-H226, 48 h
SF-268 [1] = assay: Growth inhibition of human SF268 cells incubated for 48 hrs by sulforhodamine B assay; format: functional, cell-based; conditions: SF-268, 48 h
SF-539 = assay: Growth inhibition of human SF539 cells incubated for 48 hrs by sulforhodamine B assay; format: functional, cell-based; conditions: SF-539, 48 h
SK-MEL-2 = assay: Growth inhibition of human SK-MEL-2 cells incubated for 48 hrs by sulforhodamine B assay; format: functional, cell-based; conditions: SK-MEL-2, 48 h
SK-MEL-5 [2] = assay: Growth inhibition of human SK-MEL-5 cells incubated for 48 hrs by sulforhodamine B assay; format: functional, cell-based; conditions: SK-MEL-5, 48 h
786-0 = assay: Growth inhibition of human 786-0 cells incubated for 48 hrs by sulforhodamine B assay; format: functional, cell-based; conditions: 786-0, 48 h
MCF7 = assay: Growth inhibition of human MCF7 cells incubated for 48 hrs by sulforhodamine B assay; format: functional, cell-based; conditions: MCF7, 48 h
BT-549 [3] = assay: Growth inhibition of human BT549 cells incubated for 48 hrs by sulforhodamine B assay; format: functional, cell-based; conditions: BT-549, 48 h
HOP-62 = assay: Growth inhibition of human HOP62 cells assessed as cell growth at 0.01 uM incubated for 48 hrs by sulforhodamine B assay relative to control; format: functional; conditions: HOP-62, 48 h, read-out: Activity
U-251 = assay: Growth inhibition of human U251 cells assessed as cell growth at 0.01 uM incubated for 48 hrs by sulforhodamine B assay relative to control; format: functional; conditions: U-251, 48 h, read-out: Activity
NCI-H460 = assay: Growth inhibition of human NCI-H460 cells assessed as cell growth at 0.1 uM incubated for 48 hrs by sulforhodamine B assay relative to control; format: functional; conditions: NCI-H460, 48 h, read-out: Activity
M14 [4] = assay: Growth inhibition of human M14 cells assessed as cell growth at 0.1 uM incubated for 48 hrs by sulforhodamine B assay relative to control; format: functional; conditions: M14, 48 h, read-out: Activity
UO-31 = assay: Growth inhibition of human UO31 cells assessed as cell growth at 0.1 uM incubated for 48 hrs by sulforhodamine B assay relative to control; format: functional; conditions: UO-31, 48 h, read-out: Activity
SNB-75 = assay: Growth inhibition of human SNB75 cells assessed as cell growth at 1 uM incubated for 48 hrs by sulforhodamine B assay relative to control; format: functional; conditions: SNB-75, 48 h, read-out: Activity
M14 [5] = assay: Growth inhibition of human M14 cells assessed as cell growth at 1 uM incubated for 48 hrs by sulforhodamine B assay relative to control; format: functional; conditions: M14, 48 h, read-out: Activity
SK-MEL-5 [6] = assay: Growth inhibition of human SK-MEL-5 cells assessed as cell growth at 1 uM incubated for 48 hrs by sulforhodamine B assay relative to control; format: functional; conditions: SK-MEL-5, 48 h, read-out: Activity
OVCAR-4 = assay: Growth inhibition of human OVCAR4 cells assessed as cell growth at 1 uM incubated for 48 hrs by sulforhodamine B assay relative to control; format: functional; conditions: OVCAR-4, 48 h, read-out: Activity
OVCAR-5 = assay: Growth inhibition of human OVCAR5 cells assessed as cell growth at 1 uM incubated for 48 hrs by sulforhodamine B assay relative to control; format: functional; conditions: OVCAR-5, 48 h, read-out: Activity
BT-549 [7] = assay: Growth inhibition of human BT549 cells assessed as cell growth at 1 uM incubated for 48 hrs by sulforhodamine B assay relative to control; format: functional; conditions: BT-549, 48 h, read-out: Activity
A549 = assay: Growth inhibition of human A549/ATCC cells assessed as cell growth at 100 uM incubated for 48 hrs by sulforhodamine B assay relative to control; format: functional; conditions: A549, 48 h, read-out: Activity
NCI-H522 = assay: Growth inhibition of human NCI-H522 cells assessed as cell growth at 100 uM incubated for 48 hrs by sulforhodamine B assay relative to control; format: functional; conditions: NCI-H522, 48 h, read-out: Activity
SF-268 [8] = assay: Growth inhibition of human SF268 cells assessed as cell growth at 100 uM incubated for 48 hrs by sulforhodamine B assay relative to control; format: functional; conditions: SF-268, 48 h, read-out: Activity
Malme-3M = assay: Growth inhibition of human MALME-3M cells assessed as cell growth at 100 uM incubated for 48 hrs by sulforhodamine B assay relative to control; format: functional; conditions: read-out: Activity
SK-MEL-28 = assay: Growth inhibition of human SK-MEL-28 cells assessed as cell growth at 100 uM incubated for 48 hrs by sulforhodamine B assay relative to control; format: functional; conditions: SK-MEL-28, 48 h, read-out: Activity
SN12C = assay: Growth inhibition of human SN12C cells assessed as cell growth at 100 uM incubated for 48 hrs by sulforhodamine B assay relative to control; format: functional; conditions: read-out: Activity
[9] = read-out: LC50 (the source's name)
[10] = read-out: pLC50 (the source's name) (converted)

`COc1cc(Cl)cc(-c2nn(-c3cccc(NC(=O)c4ccc(N5CCOCC5)c(C(F)(F)F)c4)c3)cc2-c2ccncc2)c1` showed a GI50 (MOLT-4; read-out: GI50) of 5.49 µM, a CC50 (MOLT-4; [9]) greater than 100 µM and a TGI (MOLT-4; read-out: TGI) greater than 100 µM. For the same molecule, the GI50 (MOLT-4; read-out: pGI50 (converted)) was 5.5 µM, the CC50 (MOLT-4; [10]) was greater than 100 µM and the TGI (MOLT-4; read-out: pTGI (converted)) was greater than 100 µM. For the same molecule, the GI50 (SR; read-out: GI50) was 3.06 µM, the CC50 (SR; [9]) was greater than 100 µM and the TGI (SR; read-out: TGI) was greater than 100 µM. It also gave a GI50 (SR; read-out: pGI50 (converted)) of 3.09 µM, a CC50 (SR; [10]) greater than 100 µM and a TGI (SR; read-out: pTGI (converted)) greater than 100 µM. For the same molecule, the GI50 (NCI-H226; read-out: GI50) was 9.34 µM, the LC50 (NCI-H226; read-out: LC50) was greater than 100 µM and the TGI (NCI-H226; read-out: TGI) was greater than 100 µM. For the same molecule, the GI50 (NCI-H226; read-out: pGI50 (converted)) was 93.3 µM, the LC50 (NCI-H226; read-out: pLC50 (converted)) was greater than 100 µM and the TGI (NCI-H226; read-out: pTGI (converted)) was greater than 100 µM. The GI50 (SF-268 [1]; read-out: GI50) was greater than 100 µM, the CC50 (SF-268 [1]; [9]) was greater than 100 µM and the TGI (SF-268 [1]; read-out: TGI) was greater than 100 µM. The GI50 (SF-268 [1]; read-out: pGI50 (converted)) was greater than 100 µM, the CC50 (SF-268 [1]; [10]) was greater than 100 µM and the TGI (SF-268 [1]; read-out: pTGI (converted)) was greater than 100 µM. It also gave a GI50 (SF-539; read-out: GI50) of 3.74 µM, a CC50 (SF-539; [9]) greater than 100 µM and a TGI (SF-539; read-out: TGI) greater than 100 µM. For the same molecule, the GI50 (SF-539; read-out: pGI50 (converted)) was 3.72 µM, the CC50 (SF-539; [10]) was greater than 100 µM and the TGI (SF-539; read-out: pTGI (converted)) was greater than 100 µM. It also gave a GI50 (SK-MEL-2; read-out: GI50) of 2.11 µM, a CC50 (SK-MEL-2; [9]) greater than 100 µM and a TGI (SK-MEL-2; read-out: TGI) greater than 100 µM. The GI50 (SK-MEL-2; read-out: pGI50 (converted)) was 26.3 µM, the CC50 (SK-MEL-2; [10]) was greater than 100 µM and the TGI (SK-MEL-2; read-out: pTGI (converted)) was greater than 100 µM. The GI50 (SK-MEL-5 [2]; read-out: GI50) was 1.55 µM, the CC50 (SK-MEL-5 [2]; [9]) was greater than 100 µM and the TGI (SK-MEL-5 [2]; read-out: TGI) was greater than 100 µM. The GI50 (SK-MEL-5 [2]; read-out: pGI50 (converted)) was 16.6 µM, the CC50 (SK-MEL-5 [2]; [10]) was greater than 100 µM and the TGI (SK-MEL-5 [2]; read-out: pTGI (converted)) was greater than 100 µM. The GI50 (786-0; read-out: GI50) was 3.73 µM, the CC50 (786-0; [9]) was greater than 100 µM and the TGI (786-0; read-out: TGI) was 29.6 µM. The GI50 (786-0; read-out: pGI50 (converted)) was 3.24 µM, the CC50 (786-0; [10]) was greater than 100 µM and the TGI (786-0; read-out: pTGI (converted)) was 29.5 µM. The GI50 (MCF7; read-out: GI50) was 5.71 µM, the LC50 (MCF7; read-out: LC50) was greater than 100 µM and the TGI (MCF7; read-out: TGI) was greater than 100 µM. The GI50 (MCF7; read-out: pGI50 (converted)) was 8.71 µM, the LC50 (MCF7; read-out: pLC50 (converted)) was greater than 100 µM and the TGI (MCF7; read-out: pTGI (converted)) was greater than 100 µM. For the same molecule, the GI50 (BT-549 [3]; read-out: GI50) was 5.9 µM, the CC50 (BT-549 [3]; [9]) was greater than 100 µM and the TGI (BT-549 [3]; read-out: TGI) was greater than 100 µM. It also gave a GI50 (BT-549 [3]; read-out: pGI50 (converted)) of 89.1 µM, a CC50 (BT-549 [3]; [10]) greater than 100 µM and a TGI (BT-549 [3]; read-out: pTGI (converted)) greater than 100 µM. It also gave a growth at 0.01 µM (HOP-62) of 104%, a growth at 0.01 µM (U-251) of 95% and a growth at 0.1 µM (NCI-H460) of 102%. It also gave a growth at 0.1 µM (M14 [4]) of 96%, a growth at 0.1 µM (UO-31) of 87% and a growth at 1 µM (SNB-75) of 51%. For the same molecule, the growth at 1 µM (M14 [5]) was 58%, the growth at 1 µM (SK-MEL-5 [6]) was 50% and the growth at 1 µM (OVCAR-4) was 94%. It also gave a growth at 1 µM (OVCAR-5) of 75%, a growth at 1 µM (BT-549 [7]) of 59% and a growth at 100 µM (A549) of 25%. For the same molecule, the growth at 100 µM (NCI-H522) was 31%, the growth at 100 µM (SF-268 [8]) was 53% and the growth at 100 µM (Malme-3M) was 23%. The growth at 100 µM (SK-MEL-28) was 19% and the growth at 100 µM (SN12C) was 55%.
